Assay results from patent publication US20210022342A1, “THE USE OF SAFENERS TO IMPROVE RESISTANCE OF RICE CROP TO HERBICIDES” (Adama Agan Ltd., priority 2018, published 2021).

Experiments:
Assay type in all cases: in vivo
[1] = system: mutant rice (ML0831265-01493, ATCC deposit PTA-12933, mutation G2096S); experiment: Tank mixes of safeners with propaquizafop or quizalofop: regrowth of mutant rice; settings: quizalofop 40 g/ha, no safener
Description: (§1) Seeds of a proprietary ACCase resistant rice variety, i.e. RTA1, was used. RTA1, ML0831265-01493 (ATCC deposit PTA-12933, mutation G2096S) variety rice seeds were supplied by RiceTec. RTA1 rice cultivar contains a single mutation in the ACCase gene that confer ACCase resistance. The mutation makes the enzyme insensitive to quizalofop.
(§2) Mutant rice seeds were planted in commercial greenhouse soil mix in 10×10×10 cm plastic pots. 250 mL of soil was put into each pot, then the seeds were placed on top of the soil and the seeds were covered with 100-150 mL of soil. Approximately 8-10 seeds were planted per pot. The pots were then watered with 100 mL of a mixture of Miracle Grow and Fertiplus (iron supplement). The pots were placed in the greenhouse (38° C./20° C. day/night, 14 h photoperiod with supplemental light). The average light intensity in the greenhouse was 150 μM/m^2/sec.
Plants were grown until 10 days after planting and then the pots were transferred to trays and the plants were grown under water. :Plants were treated when they reached the 3-5 leaf stage.
Safeners were tank mixed with the herbicide in the spray bottle.
(§3) Four days after treatment, the tops of the plants were cut off so that approximately 2.5 cm of plant from the top of the soil remain. The plants were allowed to regrow for 3 days at which time the amount of regrowth was weighed by measuring the amount of fresh weight of tissue that regrew. Comparing the weight of regrowth of shoots after cutting indicates the level of phytotoxicity the herbicide had on the mutant rice plant and the increased level of resistance of the mutant rice to the herbicide when the herbicide was applied in combination with the safener.
The safeners were applied in various w/w ratios with the ACCase inhibiting herbicides to the rice plant.

[2] = system: ACCase inhibitor resistant rice seeds (ML0831265-01493 (ATCC deposit PTA-12933, mutation G2096S)); experiment: Safener seed treatment with propaquizafop or quizalofop: regrowth of resistant rice; settings: quizalofop, seeds without safener
Description: as §1, §2
Plants were grown until 10 days after planting and then the pots were transferred to trays and the plants were grown under water. :Plants were treated when they reached the 3-5 leaf stage. […]
as §3
The safeners were also applied in various w/w ratios of the ACCase inhibiting herbicides to the rice seeds.

[3] = system: weedy rice; experiment: Regrowth of weedy rice after quizalofop ethyl; settings: at the rates tested
Source text: The amount of plant regrowth observed for the ACCase resistant rice is compared to the amount of regrowth observed for the weedy rice. The weedy rice was killed by quizalofop ethyl at the rates tested, so there was no regrowth.

[4] = system: mutant rice; experiment: Regrowth of mutant rice under low and high light intensity
Source text: as §3

[5] = system: wild type rice (Non-Traited Rice); experiment: Quizalofop dose response with or without isoxadifen, regrowth, wild type rice; settings: calculated effect of safener alone, quizalofop 5.2 g/ha
[6] = system: herbicide resistant rice crop (G2096S substitution, ML0831265-01493); experiment: Quizalofop dose response with or without isoxadifen, regrowth, herbicide resistant rice
Description: Four days after treatment, the tops of the plants were cut off so that approximately 2.5 cm of plant from the top of the soil remain. The plants were allowed to regrow for 3 days at which time the amount of regrowth was weighed by measuring the amount of fresh weight of tissue that regrew.
The improvement in regrowth was calculated by subtracting the regrowth from a) wild type rice and wild type rice with isoxadifen; b) herbicide resistant rice; and c) herbicide resistant rice and isoxadifen.
Calculations were done for each application rate of quizalofop. The efficacy of safener alone and mutation alone on decreasing herbicide effect/increasing herbicide resistance were calculated. The relative fresh weight re-growth is the percentage of activity (for Colby).
The re-growth data was implemented in curve and the synergistic effect was calculated.
in which E represents the percentage of regrowth expected for the application of safener on mutant rice crop at the defined doses of herbicide. X is the percentage of regrowth for the application of safener on wildtype rice crop at the defined doses of herbicide. Y is the percentage of regrowth for mutant rice crop at the defined doses of herbicide without safener application. When the percentage of regrowth observed for the application of safener on mutant rice crop at the defined doses of herbicide is greater than expected as calculated using the Colby equation, there is a synergistic effect.

CCOC(=O)[C@@H](C)Oc1ccc(Oc2cnc3cc(Cl)ccc3n2)cc1 [Quizalofop, quizalofop P-ethyl]
Regrowth (fresh weight mg) [1]: 70 mg
Regrowth (fresh weight mg) [2]: 107 mg
Effect on weedy rice (regrowth) [3]: killed
inhibition of growth of the mutant rice ([4]; high light intensity (800-1000 uM/m2/sec), 40 g/ha quizalofop, no safener): no inhibition of growth
reduction in growth of the mutant rice ([4]; high light intensity, 70 g/ha quizalofop, no safener): over 80%
Regrowth (mg FW) ([4]; high light intensity, no safener, herbicide 30 g/ha): 447 mg FW
Regrowth (mg FW) ([4]; high light intensity, no safener, herbicide 40 g/ha): 533 mg FW
Regrowth (mg FW) ([4]; high light intensity, no safener, herbicide 50 g/ha): 220 mg FW
Regrowth (mg FW) ([4]; high light intensity, no safener, herbicide 60 g/ha): 107 mg FW
Regrowth (mg FW) ([4]; high light intensity, no safener, herbicide 70 g/ha): 76.7 mg FW
Regrowth (mg FW) ([4]; high light intensity, with safener (isoxadifen), herbicide 30 g/ha): 630 mg FW
Regrowth (mg FW) ([4]; high light intensity, with safener (isoxadifen), herbicide 40 g/ha): 533 mg FW
Regrowth (mg FW) ([4]; high light intensity, with safener (isoxadifen), herbicide 50 g/ha): 603 mg FW
Regrowth (mg FW) ([4]; high light intensity, with safener (isoxadifen), herbicide 60 g/ha): 427 mg FW
Regrowth (mg FW) ([4]; high light intensity, with safener (isoxadifen), herbicide 70 g/ha): 540 mg FW
reduction in growth of the mutant rice ([4]; low light intensity (150 uM/m2/sec), 40 g/ha quizalofop, no safener): 80%
Regrowth (mg FW) ([4]; low light intensity, no safener, herbicide 30 g/ha): 30 mg FW
Regrowth (mg FW) ([4]; low light intensity, no safener, herbicide 40 g/ha): 0 mg FW
Regrowth (mg FW) ([4]; low light intensity, no safener, herbicide 50 g/ha): 0 mg FW
Regrowth (mg FW) ([4]; low light intensity, no safener, herbicide 60 g/ha): 0 mg FW
Regrowth (mg FW) ([4]; low light intensity, no safener, herbicide 70 g/ha): 0 mg FW
Regrowth (mg FW) ([4]; low light intensity, with safener (isoxadifen), herbicide 30 g/ha): 117 mg FW
Regrowth (mg FW) ([4]; low light intensity, with safener (isoxadifen), herbicide 40 g/ha): 100 mg FW
Regrowth (mg FW) ([4]; low light intensity, with safener (isoxadifen), herbicide 50 g/ha): 150 mg FW
Regrowth (mg FW) ([4]; low light intensity, with safener (isoxadifen), herbicide 60 g/ha): 50 mg FW
Regrowth (mg FW) ([4]; low light intensity, with safener (isoxadifen), herbicide 70 g/ha): 30 mg FW
Efficacy at ED50 of mutant- 5.2 g/ha (%) [5]: 26%
Calculated efficacy base on Colby (%) ([6]; expected for mutant & safener, quizalofop 5.2 g/ha): 63%
additive effect of safener and mutation, increase in ED50 ([6]; expected, compared to wildtype rice without safener): 5.1 fold
observed increase in ED50 ([6]; herbicide resistant rice with safener compared to wildtype rice without safener): 31.4 fold
Observed efficacy (%) ([6]; mutant & safener, quizalofop 5.2 g/ha): 92%
Efficacy at ED50 of mutant- 5.2 g/ha (%) ([6]; mutant alone, quizalofop 5.2 g/ha): 50%
increase in tolerance to herbicide (ED50) by the mutation ([6]; mutant rice vs wildtype rice, no safener): 2.4 fold
